# Assay results taken from patent US9150575B2, “Piperidinylpyrazolopyridine derivative” (Daiichi Sankyo Company, Limited, priority 2012, dated 2015).
# Molecular target: T1, LCAT (Homo sapiens, UniProt P04180)
# T1 construct: The obtained fraction was dialyzed against phosphate-buffered saline (pH 7.4) and used as an enzyme source and an acceptor for LCAT; from tissue; host or cells: HDL3 fraction (1.125<specific gravity<1.210 g/mL) of plasma from a healthy person
# T1 sequence (P04180 25-440): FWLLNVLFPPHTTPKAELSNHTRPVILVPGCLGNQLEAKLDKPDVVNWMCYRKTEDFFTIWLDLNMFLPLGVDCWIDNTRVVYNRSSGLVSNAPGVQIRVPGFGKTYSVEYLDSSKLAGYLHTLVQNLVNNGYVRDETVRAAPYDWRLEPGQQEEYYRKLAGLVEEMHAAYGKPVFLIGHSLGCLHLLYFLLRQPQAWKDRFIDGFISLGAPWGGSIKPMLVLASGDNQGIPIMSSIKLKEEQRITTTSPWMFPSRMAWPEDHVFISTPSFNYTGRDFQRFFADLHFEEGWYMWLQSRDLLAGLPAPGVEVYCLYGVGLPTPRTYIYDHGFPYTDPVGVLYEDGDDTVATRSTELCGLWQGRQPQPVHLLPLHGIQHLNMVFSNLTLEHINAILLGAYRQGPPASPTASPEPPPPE
# Experiment: LCAT Activity Measurement (In Vitro)
# Assay type: biochemical
# Settings: EC50 of LCAT activation; HDL3 fraction from plasma of a healthy person as enzyme source and acceptor; [14C]cholesterol; 37° C., approximately 16 hours
# Experimental: A fraction composed of HDL3 (1.125<specific gravity<1.210 g/mL) was obtained from the plasma of a healthy person by density gradient centrifugation. The obtained fraction was dialyzed against phosphate-buffered saline (pH 7.4) and used as an enzyme source and an acceptor for LCAT. Each test drug was prepared by dissolution in dimethyl sulfoxide. [14C]Cholesterol containing DTNB (Ellman's reagent, final concentration: 0.5 mM), mercaptoethanol (final concentration: 12.5 mM), and 0.6% bovine serum albumin was added to phosphate-buffered saline (pH 7.4) containing 1 mg/mL HDL3, and the test drug was further added thereto at varying concentrations to adjust the whole amount to 80 μL. This mixture was incubated at 37° C. for approximately 16 hours. Then, a mixed solution of hexane and isopropanol (mixing ratio=3:2) was added thereto to stop the reaction. After stirring, the hexane layer was collected, and this layer was evaporated to dryness. A chloroform solution (concentration: 10 mg/mL) was added thereto, and the mixture was spotted onto a thin-layer silica gel plate and developed using a mixed solution of hexane, diethyl ether, and ethyl acetate (mixing ratio=85:15:2). The radioactivity of a portion corresponding to cholesterol oleate was measured using an imaging analyzer BAS-2500 (manufactured by Fujifilm Corp.). A sample non-supplemented with the test drug was similarly treated and assayed. The EC50 value of LCAT activation was calculated according to the expression given below relative to LCAT activity in the sample non-supplemented with the test drug.
# wherein X represents the logarithm of the concentration of the test drug;
# Y represents the responsiveness (LCAT activity) of the test drug;
# Top represents the maximum value (maximum plateau);
# Bottom represents the minimum value (minimum plateau); and
# EC50 represents the 50% effective concentration.
row,SMILES,EC50
1,"CCOC(=O)c1oc(N2CCC(c3n[nH]c4c3C(O)(C(F)(F)F)CC(=O)N4)CC2)nc1C(F)(F)F (stereo not drawn) [Example 91, Ethyl 2-{4-[4-hydroxy-6-oxo-4-(trifluoromethyl)-4,5,6,7-tetrahydro-1H-pyrazolo[3,4-b]pyridin-3-yl]piperidin-1-yl}-4-(trifluoromethyl)-1,3-oxazole-5-carboxylate]",0.077 µM
2,"Cc1nc(N2CCC(c3n[nH]c4c3C(O)(C(F)(F)F)CC(=O)N4)CC2)cc(C(F)(F)F)n1 (stereo not drawn) [Example 87, 4-Hydroxy-3-{1-[2-methyl-6-(trifluoromethyl)pyrimidin-4-yl]piperidin-4-yl}-4-(trifluoromethyl)-1,4,5,7-tetrahydro-6H-pyrazolo[3,4-b]pyridin-6-one]",0.3 µM
3,"N#Cc1cnc(N2CCC(c3n[nH]c4c3C(O)(C(F)(F)F)CC(=O)N4)CC2)s1 (stereo not drawn) [Example 81, 2-{4-[4-Hydroxy-6-oxo-4-(trifluoromethyl)-4,5,6,7-tetrahydro-1H-pyrazolo[3,4-b]pyridin-3-yl]piperidin-1-yl}-1,3-thiazole-5-carbonitrile]",0.47 µM
4,"N#Cc1nc(N2CCC(c3n[nH]c4c3C(O)(C(F)(F)F)CC(=O)N4)CC2)ccc1C(F)(F)F (stereo not drawn) [Example 94, 6-{4-[4-Hydroxy-6-oxo-4-(trifluoromethyl)-4,5,6,7-tetrahydro-1H-pyrazolo[3,4-b]pyridin-3-yl]piperidin-1-yl}-3-(trifluoro)pyridine-2-carbonitrile]",0.015 µM
5,"N#Cc1ncc(N2CCC(c3n[nH]c4c3C(O)(C(F)(F)F)CC(=O)N4)CC2)cc1F (stereo not drawn) [Example 38, 3-Fluoro-5-{4-[4-hydroxy-6-oxo-4-(trifluoromethyl)-4,5,6,7-tetrahydro-1H-pyrazolo[3,4-b]pyridin-3-yl]piperidin-1-yl}pyridine-2-carbonitrile]",0.043 µM
6,"O=C1CC(O)(C(F)(F)F)c2c(C3CCN(c4cncc(C(F)(F)F)c4)CC3)n[nH]c2N1 (stereo not drawn) [Example 53, 4-Hydroxy-4-(trifluoromethyl)-3-{1-[5-(trifluoromethyl)pyridin-3-yl]piperidin-4-yl}-1,4,5,7-tetrahydro-6H-pyrazolo[3,4-b]pyridin-6-one]",0.05 µM
7,"O=C1CC(O)(C(F)(F)F)c2c(C3CCN(c4ccc(OC(F)F)cc4)CC3)n[nH]c2N1 (single isomer, unassigned; (+)) [Compound 56-2, (+)-3-{1-[4-(difluoromethoxy)phenyl]piperidin-4-yl}-4-hydroxy-4-(trifluoromethyl)-1,4,5,7-tetrahydro-6H-pyrazolo[3,4-b]pyridin-6-one]",0.98 µM
8,"O=C1CC(O)(C(F)(F)F)c2c(C3CCN(c4ncc(C(F)(F)F)cc4F)CC3)n[nH]c2N1 (stereo not drawn) [Example 96, 3-{1-[3-Fluoro-5-(trifluoromethyl)pyridin-2-yl]piperidin-4-yl}-4-hydroxy-4-(trifluoromethyl)-1,4,5,7-tetrahydro-6H-pyrazolo[3,4-b]pyridin-6-one]",0.22 µM
9,"O=C1CC(O)(C(F)(F)F)c2c(C3CCN(c4nc(C(F)(F)F)c(-c5nc(C(F)(F)F)cs5)s4)CC3)n[nH]c2N1 (stereo not drawn) [Compound 48-b, 3-{1-[4,4′-bis(trifluoromethyl)-2,5′-bi-1,3-thiazol-2′-yl]piperidin-4-yl}-4-hydroxy-4-(trifluoromethyl)-1,4,5,7-tetrahydro-6H-pyrazolo[3,4-b]pyridin-6-one]",0.046 µM

# Results, then the compound that gave them:
row,EC50,SMILES
1,1.55 µM,"N#Cc1cccnc1N1CCC(c2n[nH]c3c2C(O)(C(F)(F)F)CC(=O)N3)CC1 (stereo not drawn) [Example 100, 2-{4-[4-Hydroxy-6-oxo-4-(trifluoromethyl)-4,5,6,7-tetrahydro-1H-pyrazolo[3,4-b]pyridin-3-yl]piperidin-1-yl}pyridine-3-carbonitrile]"
2,0.26 µM,"Cc1cncc(N2CCC(c3n[nH]c4c3C(O)(C(F)(F)F)CC(=O)N4)CC2)n1 (stereo not drawn) [Example 26, 4-Hydroxy-3-[1-(6-methylpyrazin-2-yl)piperidin-4-yl]-4-(trifluoromethyl)-1,4,5,7-tetrahydro-6H-pyrazolo[3,4-b]pyridin-6-one]"
3,0.15 µM,"O=C1CC(O)(C(F)(F)F)c2c(C3CCN(c4ccc(Cl)nn4)CC3)n[nH]c2N1 (stereo not drawn) [Example 34, 3-[1-(6-Chloropyridazin-3-yl)piperidin-4-yl]-4-hydroxy-4-(trifluoromethyl)-1,4,5,7-tetrahydro-6H-pyrazolo[3,4-b]pyridin-6-one]"
4,0.3 µM,"O=C1CC(O)(C(F)(F)F)c2c(C3CCN(c4ccnc(C(F)(F)F)n4)CC3)n[nH]c2N1 (stereo not drawn) [Example 79, 4-Hydroxy-4-(trifluoromethyl)-3-{1-[2-(trifluoromethyl)pyrimidin-4-yl]piperidin-4-yl}-1,4,5,7-tetrahydro-6H-pyrazolo[3,4-b]pyridin-6-one]"
5,3.09 µM,"O=C1CC(O)(C(F)(F)F)c2c(C3CCN(c4ncccc4Cl)CC3)n[nH]c2N1 (stereo not drawn) [Example 11, 3-[1-(3-Chloropyridin-2-yl)piperidin-4-yl]-4-hydroxy-4-(trifluoromethyl)-1,4,5,7-tetrahydro-6H-pyrazolo[3,4-b]pyridin-6-one]"
6,0.086 µM,"O=C1CC(O)(C(F)(F)F)c2c(C3CCN(c4ccc(Cl)cn4)CC3)n[nH]c2N1 (stereo not drawn) [Example 14, 3-[1-(5-Chloropyridin-2-yl)piperidin-4-yl]-4-hydroxy-4-(trifluoromethyl)-1,4,5,7-tetrahydro-6H-pyrazolo[3,4-b]pyridin-6-one]"
7,0.27 µM,"N#Cc1ccc(N2CCC(c3n[nH]c4c3C(O)(C(F)(F)F)CC(=O)N4)CC2)nc1Cl (stereo not drawn) [Example 21, 2-Chloro-6-{4-[4-hydroxy-6-oxo-4-(trifluoromethyl)-4,5,6,7-tetrahydro-1H-pyrazolo[3,4-b]pyridin-3-yl]piperidin-1-yl}pyridine-3-carbonitrile]"
8,0.63 µM,"Cc1cccc(N2CCC(c3n[nH]c4c3C(O)(C(F)(F)F)CC(=O)N4)CC2)n1 (stereo not drawn) [Example 3, 4-Hydroxy-3-[1-(6-methylpyridin-2-yl)piperidin-4-yl]-4-(trifluoromethyl)-1,4,5,7-tetrahydro-6H-pyrazolo[3,4-b]pyridin-6-one]"
9,0.33 µM,"COc1ccnc(N2CCC(c3n[nH]c4c3C(O)(C(F)(F)F)CC(=O)N4)CC2)c1 (stereo not drawn) [Example 39, 4-Hydroxy-3-[1-(4-methoxypyridin-2-yl)piperidin-4-yl]-4-(trifluoromethyl)-1,4,5,7-tetrahydro-6H-pyrazolo[3,4-b]pyridin-6-one]"
10,0.3 µM,"COc1ccc(N2CCC(c3n[nH]c4c3C(O)(C(F)(F)F)CC(=O)N4)CC2)nn1 (stereo not drawn) [Example 28, 4-Hydroxy-3-[1-(6-methoxypyridazin-3-yl)piperidin-4-yl]-4-(trifluoromethyl)-1,4,5,7-tetrahydro-6H-pyrazolo[3,4-b]pyridin-6-one]"
11,1.26 µM,"Cc1cccnc1N1CCC(c2n[nH]c3c2C(O)(C(F)(F)F)CC(=O)N3)CC1 (stereo not drawn) [Example 6, 4-Hydroxy-3-[1-(3-methylpyridin-2-yl)piperidin-4-yl]-4-(trifluoromethyl)-1,4,5,7-tetrahydro-6H-pyrazolo[3,4-b]pyridin-6-one]"
12,0.056 µM,"N#Cc1ccnc(N2CCC(c3n[nH]c4c3C(O)(C(F)(F)F)CC(=O)N4)CC2)c1 (stereo not drawn) [Example 33, 2-{4-[4-Hydroxy-6-oxo-4-(trifluoromethyl)-4,5,6,7-tetrahydro-1H-pyrazolo[3,4-b]pyridin-3-yl]piperidin-1-yl}pyridine-4-carbonitrile]"
